Numbers after ± are expanded uncertainties.
Settings: 298.15 K, 101.33 kPa, Liquid; for speed of sound: Sing-around technique in a fixed-path interferometer; for mass density: Vibrating tube method

SMILES | speed of sound | mass density
Cc1ccccc1N [2-methylaniline] | 1602.6 ± 2.4 m/s | 994.351 ± 0.24 kg/m3
Cc1ccccn1 [2-methylpyridine] | 1380.1 ± 2.9 m/s | 939.802 ± 0.77 kg/m3
Cc1cccnc1 [3-methylpyridine] | 1424 ± 2.3 m/s | 952.002 ± 0.24 kg/m3
Cc1ccncc1 [4-methylpyridine] | 1431.5 ± 2.3 m/s | 950.179 ± 0.24 kg/m3
c1ccncc1 [pyridine] | 1417.8 ± 2.3 m/s | 978.249 ± 0.24 kg/m3

— the NIST ThermoML archive (doi:10.1016/j.jct.2010.12.028)
